Data reported in ChEMBL document CHEMBL3745645, “Synthesis, in vitro antitumor activity, dihydrofolate reductase inhibition, DNA intercalation and structure-activity relationship studies of 1,3,5-triazine analogues” (Bioorg Med Chem Lett, 2016).
Activity calls are given as the source filed them. The calls are words filed in the database; no cut-off is given here.

Key:
Calf thymus DNA = assay: Binding affinity to calf thymus DNA at 25 uM by UV-vis spectrometric analysis; type: nucleic-acid assay; details: Bos taurus
RXF 393 = assay: Cytotoxicity against human RXF393 cells at 10 uM after 48 hrs by SRB assay; type: functional
Hs-578T = assay: Cytotoxicity against human Hs 578T cells at 10 uM after 48 hrs by SRB assay; type: functional
COLO 205 = assay: Cytotoxicity against human COLO205 cells at 10 uM after 48 hrs by SRB assay; type: functional
SNB-75 = assay: Cytotoxicity against human SNB75 cells at 10 uM after 48 hrs by SRB assay; type: functional
LOX IMVI = assay: Cytotoxicity against human LOXIMVI cells at 10 uM after 48 hrs by SRB assay; type: functional
OVCAR-3 = assay: Cytotoxicity against human OVCAR3 cells at 10 uM after 48 hrs by SRB assay; type: functional
[1] = Cytotoxicity against human HL-60(TB) cells at 10 uM after 48 hrs by SRB assay; type: functional; details: HL-60, 48 h, read-out: GI
CAKI-1 = assay: Cytotoxicity against human Caki1 cells at 10 uM after 48 hrs by SRB assay; type: functional
DU-145 = assay: Cytotoxicity against human DU145 cells at 10 uM after 48 hrs by SRB assay; type: functional
HOP-62 = assay: Cytotoxicity against human HOP62 cells at 10 uM after 48 hrs by SRB assay; type: functional
HOP-92 = assay: Cytotoxicity against human HOP92 cells at 10 uM after 48 hrs by SRB assay; type: functional
SW-620 = assay: Cytotoxicity against human SW620 cells at 10 uM after 48 hrs by SRB assay; type: functional
SF-268 = assay: Cytotoxicity against human SF268 cells at 10 uM after 48 hrs by SRB assay; type: functional
IGROV-1 = assay: Cytotoxicity against human IGROV1 cells at 10 uM after 48 hrs by SRB assay; type: functional
OVCAR-8 = assay: Cytotoxicity against human OVCAR8 cells at 10 uM after 48 hrs by SRB assay; type: functional
NCI/ADR-RES = assay: Cytotoxicity against human NCI-ADR-RES cells at 10 uM after 48 hrs by SRB assay; type: functional
SK-OV-3 = assay: Cytotoxicity against human SKOV3 cells at 10 uM after 48 hrs by SRB assay; type: functional

Cc1nc2ccc(Nc3nc(NCCN4CCOCC4)nc(Nc4ccc(F)cc4)n3)cc2n1Cc1ccccc1
Activity (Calf thymus DNA): Active

Cc1nc2cc(Nc3nc(Nc4ccc(F)cc4)nc(N4CCN(C)CC4)n3)ccc2n1Cc1ccccc1
growth inhibition (GI) (RXF 393): Active
growth inhibition (GI) (Hs-578T): Active
growth inhibition (GI) (COLO 205): Active
growth inhibition (GI) (SNB-75): Active
growth inhibition (GI) (LOX IMVI): Active
growth inhibition (GI) (OVCAR-3): Active

Cc1nc2cc(Nc3nc(Nc4ccc(F)cc4)nc(-c4cccs4)n3)ccc2n1Cc1ccccc1
inhibition of growth at 10 µM [1]: 71.9%

Cc1nc2cc(Nc3nc(Nc4ccc(F)cc4)nc(N4CCCC4)n3)ccc2n1Cc1ccccc1
growth inhibition (GI) (CAKI-1): Active
growth inhibition (GI) (RXF 393): Active
growth inhibition (GI) (DU-145): Active
growth inhibition (GI) (HOP-62): Active
growth inhibition (GI) (HOP-92): Active
growth inhibition (GI) (COLO 205): Active
growth inhibition (GI) (SW-620): Active
growth inhibition (GI) (SF-268): Active
growth inhibition (GI) (SNB-75): Active
growth inhibition (GI) (LOX IMVI): Active
growth inhibition (GI) (IGROV-1): Active
growth inhibition (GI) (OVCAR-3): Active
growth inhibition (GI) (OVCAR-8): Active
growth inhibition (GI) (NCI/ADR-RES): Active
growth inhibition (GI) (SK-OV-3): Active
